≈ marks a conversion by molar mass, not a printed value.
Key:
MraYSA (S. aureus MraY) = MraYSA (S. aureus MraY) (Staphylococcus aureus, UniProt Q2FZ93); assay: fluorescence assay of dansylated lipid I formation; assay type: biochemical
in vitro = assay: in vitro; design: WST-8 cell viability assay in HepG2 cells; conditions: human, hepg2 cells; read-out: IC50
Description: Cells were regularly passed to maintain exponential growth. HepG2 cells were sowed by 1.0 × 10^4 cells for each well in 96-well plate and cultured at 37 °C under 5% CO2 in air for 24 h. The cells were treated with a solution of test compounds in DMSO at various concentration and incubated at 37 °C under 5% CO2 in air for 24 h. After that, the WST-8 (Dojindo) cell proliferation assay was used. Cell viability was indicated as a percentage of the negative control (cells treated with DMSO only) and that value was fixed at 100%.

Enterococcus faecalis 25 = test system: T1, Enterococcus faecalis 25; assay: microbe, parasite or virus in culture; design: CLSI broth microdilution MIC in MHB-II; conditions: Enterococcus faecalis, 25, 18 h, read-out: MIC
T1 construct: 25
Description: (§1) MICs were determined by a microdilution broth method as recommended by the CLSI with MHB-II. For MICs of stable analogues, a 2-fold dilution of each compound was prepared in DMSO at 100-fold of the final concentration. The strains were inoculated with 5 × 10^5 cfu/mL in 96-well plates (each 100 μL/well), and 1 μL of DMSO solutions of the samples were added (contained less than 1% DMSO). The plates were incubated at 37 °C for 18 h and then MICs were determined. MICs of stable analogues in Table 1 were the highest value in three trials. MICs in Supplementary Table 1 were determined in one trial.

Enterococcus faecalis 26 = test system: T2, Enterococcus faecalis 26; assay: microbe, parasite or virus in culture; design: CLSI broth microdilution MIC in MHB-II; conditions: Enterococcus faecalis, 26, 18 h, read-out: MIC
T2 construct: 26
Description: as §1

Enterococcus faecium 2 = assay: microbe, parasite or virus in culture; design: CLSI broth microdilution MIC in MHB-II; conditions: Enterococcus faecium, 2, 18 h, read-out: MIC
Description: as §1

Enterococcus faecium 5 = assay: microbe, parasite or virus in culture; design: CLSI broth microdilution MIC in MHB-II; conditions: Enterococcus faecium, 5, 18 h, read-out: MIC
Description: as §1

Enterococcus faecium 7 = assay: microbe, parasite or virus in culture; design: CLSI broth microdilution MIC in MHB-II; conditions: Enterococcus faecium, 7, 18 h, read-out: MIC
Description: as §1

Enterococcus faecium 9 = assay: microbe, parasite or virus in culture; design: CLSI broth microdilution MIC in MHB-II; conditions: Enterococcus faecium, 9, 18 h, read-out: MIC
Description: as §1

[1] = test system: T3, Staphylococcus aureus #1958; assay: microbe, parasite or virus in culture; design: CLSI broth microdilution MIC in MHB-II; conditions: Staphylococcus aureus, 18 h, read-out: MIC
T3 construct: #1958
Description: as §1

[2] = test system: T4, Staphylococcus aureus #2071; assay: microbe, parasite or virus in culture; design: CLSI broth microdilution MIC in MHB-II; conditions: Staphylococcus aureus, 18 h, read-out: MIC
T4 construct: #2071
Description: as §1

[3] = test system: T5, Staphylococcus aureus #2310; assay: microbe, parasite or virus in culture; design: CLSI broth microdilution MIC in MHB-II; conditions: Staphylococcus aureus, 18 h, read-out: MIC
T5 construct: #2310
Description: as §1

[4] = test system: T6, Staphylococcus aureus #2334; assay: microbe, parasite or virus in culture; design: CLSI broth microdilution MIC in MHB-II; conditions: Staphylococcus aureus, 18 h, read-out: MIC
T6 construct: #2334
Description: as §1

[5] = test system: T7, Staphylococcus aureus #2933; assay: microbe, parasite or virus in culture; design: CLSI broth microdilution MIC in MHB-II; conditions: Staphylococcus aureus, 18 h, read-out: MIC
T7 construct: #2933
Description: as §1

A. baumannii ATCC 19606 = test system: T8, A. baumannii ATCC 19606; assay: microbe, parasite or virus in culture; conditions: Acinetobacter baumannii, ATCC19606
T8 construct: ATCC 19606
Description: (§2) MICs were determined by a microdilution broth method as recommended by the CLSI with MHB-II. For MICs of stable analogues, a 2-fold dilution of each compound was prepared in DMSO at 100-fold of the final concentration. The strains were inoculated with 5 × 10^5 cfu/mL in 96-well plates (each 100 μL/well), and 1 μL of DMSO solutions of the samples were added (contained less than 1% DMSO). The plates were incubated at 37 °C for 18 h and then MICs were determined. MICs of stable analogues in Table 1 were the highest value in three trials. MICs in Supplementary Table 1 were determined in one trial.  Fig. 2 Results of biological evaluations of hydrazone library. a General structures of hydrazine fragment moiety are shown. Each hydrazine class are represented by different colours (green; BZ, cyan; PA, grey; AC, yellow; AA, orange; LA). b–h MraY inhibitory activity and antibacterial activity of the hydrazone library. The bar graphs show the relative enzyme activity with DMSO as 100% when the compound is treated at given concentration (b,c; TUN at 100 nM, d,e; MRY at 10 nM, f.g; MRD at 100 nM, h; CAP at 1000 nM. n = 1), with the lower bars indicating higher inhibitory activity. The colour of the bars corresponds to Fig. 2a. […] Data of control compounds (van: vancomycin, col: colistin) are shown left column in each panel. E. faecium ATCC 35667, S. aureus ATCC 29213, P. aeruginosa ATCC 27853, K. pneumoniae ATCC 13883, E. cloacae ATCC 13047, A. baumannii ATCC 19606, E. coli ATCC 25922.

E. cloacae ATCC 13047 = test system: T9, E. cloacae ATCC 13047; assay: microbe, parasite or virus in culture; conditions: Enterobacter cloacae, ATCC13047
T9 construct: ATCC 13047
Description: as §2

E. coli ATCC 25922 = test system: T10, E. coli ATCC 25922; assay: microbe, parasite or virus in culture; conditions: Escherichia coli, ATCC25922
T10 construct: ATCC 25922
Description: as §2

E. faecium ATCC 35667 = test system: T11, E. faecium ATCC 35667; assay: microbe, parasite or virus in culture; conditions: Enterococcus faecium, ATCC35667
T11 construct: ATCC 35667
Description: as §2

P. aeruginosa ATCC 27853 = test system: T12, P. aeruginosa ATCC 27853; assay: microbe, parasite or virus in culture; conditions: Pseudomonas aeruginosa, ATCC27853
T12 construct: ATCC 27853
Description: as §2

[6] = test system: T13, Staphylococcus aureus #2932; assay: microbe, parasite or virus in culture; design: CLSI broth microdilution MIC in MHB-II; conditions: Staphylococcus aureus, 18 h, read-out: MIC
T13 construct: #2932
Description: as §1

Sequence of MraYSA (S. aureus MraY) (Q2FZ93 whole entry): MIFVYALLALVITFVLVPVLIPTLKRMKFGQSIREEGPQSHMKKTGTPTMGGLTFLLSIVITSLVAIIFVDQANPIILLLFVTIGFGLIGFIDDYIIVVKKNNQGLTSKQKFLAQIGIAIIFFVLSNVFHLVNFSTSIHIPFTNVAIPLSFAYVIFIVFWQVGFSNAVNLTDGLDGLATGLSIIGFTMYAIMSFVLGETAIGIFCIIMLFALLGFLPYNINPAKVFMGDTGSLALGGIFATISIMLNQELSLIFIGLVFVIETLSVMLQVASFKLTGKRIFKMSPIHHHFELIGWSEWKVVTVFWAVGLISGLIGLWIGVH

| SMILES | IC50 (MraYSA (S. aureus MraY)) [µM] | CC50 at 24 h (in vitro) [µM] | MIC (Enterococcus faecalis 25) [µg/mL] | MIC (Enterococcus faecalis 26) [µg/mL] | MIC (Enterococcus faecium 2) [µg/mL] | MIC (Enterococcus faecium 5) [µg/mL] | MIC (Enterococcus faecium 7) [µg/mL] | MIC (Enterococcus faecium 9) [µg/mL] | MIC [1] [µg/mL] | MIC [2] [µg/mL] | MIC [3] [µg/mL] | MIC [4] [µg/mL] | MIC [5] [µg/mL] | MIC (A. baumannii ATCC 19606) [µM] | MIC (E. cloacae ATCC 13047) [µM] | MIC (E. coli ATCC 25922) [µM] | MIC (E. faecium ATCC 35667) [µM] | MIC (P. aeruginosa ATCC 27853) [µM] | MIC [6] [µg/mL] |
| --- | --- | --- | --- | --- | --- | --- | --- | --- | --- | --- | --- | --- | --- | --- | --- | --- | --- | --- | --- |
| CCCCCCCCCCCCCCCC(=O)N[C@@H](CCCNC(=N)N)C(=O)Nc1ccc(CN[C@H](C(=O)O)[C@H](O[C@@H]2O[C@H](CN)[C@@H](O)[C@H]2O)[C@H]2O[C@@H](n3ccc(=O)[nH]c3=O)[C@H](O)[C@@H]2O)cc1 [compound 7, analogue 7] | 0.0017 | 25 | 0.25 (≈ 0.264 µM) | 0.13 (≈ 0.137 µM) | 0.5 (≈ 0.527 µM) | 0.5 (≈ 0.527 µM) | 0.5 (≈ 0.527 µM) | 0.25 (≈ 0.264 µM) | 1 (≈ 1.05 µM) | 1 (≈ 1.05 µM) | 2 (≈ 2.11 µM) | 2 (≈ 2.11 µM) | 1 (≈ 1.05 µM) |  |  |  |  |  |  |
| CCCCCCCCCCCCCCCC(=O)N[C@@H](CCCCN)C(=O)Nc1cccc(CN[C@H](C(=O)O)[C@H](O[C@@H]2O[C@H](CN)[C@@H](O)[C@H]2O)[C@H]2O[C@@H](n3ccc(=O)[nH]c3=O)[C@H](O)[C@@H]2O)c1 [compound 6, analogue 6] | 0.0037 | 16 | 0.5 (≈ 0.543 µM) | 0.25 (≈ 0.272 µM) | 1 (≈ 1.09 µM) | 1 (≈ 1.09 µM) | 2 (≈ 2.17 µM) | 1 (≈ 1.09 µM) | 1 (≈ 1.09 µM) | 64 (≈ 69.6 µM) |  | 1 (≈ 1.09 µM) | 0.5 (≈ 0.543 µM) |  |  |  |  |  |  |
| CN[C@H](CC(C)C)C(=O)N[C@H]1C(=O)N[C@@H](CC(N)=O)C(=O)N[C@H]2C(=O)N[C@H]3C(=O)N[C@H](C(=O)N[C@H](C(=O)O)c4cc(O)cc(O)c4-c4cc3ccc4O)[C@H](O)c3ccc(c(Cl)c3)Oc3cc2cc(c3O[C@@H]2O[C@H](CO)[C@@H](O)[C@H](O)[C@H]2O[C@H]2C[C@](C)(N)[C@H](O)[C@H](C)O2)Oc2ccc(cc2Cl)[C@H]1O [vancomycin] |  |  | 1 (≈ 0.69 µM) | 1 (≈ 0.69 µM) | 1 (≈ 0.69 µM) | 1 (≈ 0.69 µM) | 0.5 (≈ 0.345 µM) | 1 (≈ 0.69 µM) | 1 (≈ 0.69 µM) |  | 2 (≈ 1.38 µM) | 2 (≈ 1.38 µM) | 1 (≈ 0.69 µM) | 50 (≈ 72.5 µg/mL) | > 50 | > 50 | < 0.5 | > 50 | 2 (≈ 1.38 µM) |
| CCCCCCCCCCCCCCCC(=O)N[C@@H](CCCCN)C(=O)Nc1ccc(CN[C@H](C(=O)O)[C@H](O[C@@H]2O[C@H](CN)[C@@H](O)[C@H]2O)[C@H]2O[C@@H](n3ccc(=O)[nH]c3=O)[C@H](O)[C@@H]2O)cc1 [compound 5, analogue 5] | 0.0031 | 22 | 0.25 (≈ 0.272 µM) | 0.13 (≈ 0.141 µM) | 0.5 (≈ 0.543 µM) | 0.5 (≈ 0.543 µM) | 0.5 (≈ 0.543 µM) | 0.25 (≈ 0.272 µM) | 1 (≈ 1.09 µM) | 0.5 (≈ 0.543 µM) | 1 (≈ 1.09 µM) | 1 (≈ 1.09 µM) | 0.5 (≈ 0.543 µM) |  |  |  |  |  | 1 (≈ 1.09 µM) |
